Measured values taken from PMC10726357, “New Genetically Engineered Derivatives of Antibacterial Darobactins Underpin Their Potential for Antibiotic Development” (Journal of Medicinal Chemistry, 2023).
Converted amounts (≈) assume the structure as drawn. Like-named read-outs stand apart in the source and are kept apart here. Where no end group is shown, it is not given here.

What was measured:
E. coli ATCC25922 = type: cell-based, Escherichia coli
Procedure: (§1) The antibacterial activity of novel darobactins was determined by the evaluation of the minimum inhibitory concentration (MIC) as previously described for crude extracts and for pure darobactin analogues.[12]

K. pneumoniae DSM-30104 = type: cell-based, Klebsiella pneumoniae
Procedure: as §1

P. aeruginosa PA01 [1] = type: cell-based, Pseudomonas aeruginosa
Procedure: as §1

A. baumannii DSM-30008 = type: cell-based, Acinetobacter baumannii
Procedure: as §1

[2] = target: T1, EcBamA (E. coli BamA barrel domain) (Escherichia coli, UniProt P0A940, C690S/C700S); experiment: Microscale thermophoresis (MST) KD determination; type: binding
T1 construct: The E. coli BamA barrel domain (BamA-β) (residues 421–810, C690S, C700S); made in house
Procedure: As an alternative to the previously published methods using isothermal titration calorimetry (ITC), we established a KD determination assay using microscale thermophoresis (MST) to enable higher throughput.
Microscale thermophoresis (MST) (serial no. 201709-BR-N024, Monolith NT.115 Micro Scale Thermophoresis, NanoTemper Technologies GmbH) was performed according to the standard protocol from the manufacturer NanoTemper Technologies GmbH using a Monolith His-Tag Labeling Kit RED-tris-NTA second-generation kit. The buffer used was HEPES (50 mM), pH 7.6, MgCl2 (5 mM), and Tween (0.05%). […] A 1:1 dilution of the ligand over 16 samples was performed using a stock of ligand (in water) diluted in HEPES buffer. Nonhydrophobic capillary tubes were used. A pretest to check for the labeling and compound fluorescence was performed for every sample followed by a binding affinity (KD) determination. Each sample was measured after 15 min of incubation at RT and analyzed in MO Control version 1.6.

[3] = test system: Klebsiella pneumoniae DSM-30104; experiment: Antibacterial activity screening of darobactin-containing crude extracts; type: cell-based; set-up: key: two-fold serial dilution from 1:15 (A) (concentration factor: 6.67×); low activity A B C D E F G H high activity; low activity A B C D E F G H high activity; low activity A B C D E F G H high activity; low activity A B C D E F G H high activity; low activity A B C D E F G H high activity; low activity A B C D E F G H high activity; to 1:3,840 (H) (concentration factor: 0.05×); conditions: derivative-containing crude extract, two-fold serial dilution
Procedure: (§2) The extracts of production clones for all derivatives were prepared and tested for their antibacterial activity against E. coli ATCC 25922, P. aeruginosa PA01, K. pneumoniae DSM-30104, and A. baumannii DSM-30008.
as §1

[4] = test system: Acinetobacter baumannii DSM-30008; experiment: as above; type: cell-based; set-up: key: two-fold serial dilution from 1:15 (A) (concentration factor: 6.67×); low activity A B C D E F G H high activity; low activity A B C D E F G H high activity; low activity A B C D E F G H high activity; low activity A B C D E F G H high activity; low activity A B C D E F G H high activity; low activity A B C D E F G H high activity; to 1:3,840 (H) (concentration factor: 0.05×); conditions: derivative-containing crude extract, two-fold serial dilution
Procedure: as §2, §1

[5] = test system: Escherichia coli ATCC 25922; experiment: as above; type: cell-based; set-up: key: two-fold serial dilution from 1:15 (A) (concentration factor: 6.67×); low activity A B C D E F G H high activity; low activity A B C D E F G H high activity; low activity A B C D E F G H high activity; low activity A B C D E F G H high activity; low activity A B C D E F G H high activity; low activity A B C D E F G H high activity; to 1:3,840 (H) (concentration factor: 0.05×); conditions: derivative-containing crude extract, two-fold serial dilution
Procedure: as §2, §1

P. aeruginosa PA01 [6] = experiment: as above; type: cell-based, Pseudomonas aeruginosa; set-up: key: two-fold serial dilution from 1:15 (A) (concentration factor: 6.67×); low activity A B C D E F G H high activity; low activity A B C D E F G H high activity; low activity A B C D E F G H high activity; low activity A B C D E F G H high activity; low activity A B C D E F G H high activity; low activity A B C D E F G H high activity; to 1:3,840 (H) (concentration factor: 0.05×); conditions: derivative-containing crude extract, two-fold serial dilution
Procedure: as §2, §1

| Compound | antimicrobial activity of crude extract: highest dilution factor with full growth inhibition, K. pneumoniae DSM-30104 [3] | antimicrobial activity of crude extract: highest dilution factor with full growth inhibition, A. baumannii DSM-30008 [4] | antimicrobial activity of crude extract: highest dilution factor with full growth inhibition, E. coli ATCC25922 [5] | antimicrobial activity of crude extract: highest dilution factor with full growth inhibition, P. aeruginosa PA01 (P. aeruginosa PA01 [6]) | other results |
| --- | --- | --- | --- | --- | --- |
| C[C@@H](O)[C@@H]1NC(=O)[C@H]2NC(=O)[C@H](CC(N)=O)NC(=O)[C@@H](N)Cc3c[nH]c4c(cccc34)O[C@@H]2c2c[nH]c3cc(ccc23)[C@H](CCCN)[C@@H](C(=O)N[C@@H](CCC(N)=O)C(=O)N[C@@H](Cc2c[nH]c3ccccc23)C(=O)O)NC1=O [D74] |  |  |  |  | IC50 HepG2 (HepG2): > 37 mg/L; MIC E. coli [ATCC25922] (E. coli ATCC25922; ATCC25922): 4 mg/L (≈ 3.77 µM); MIC K. pneumoniae [DSM-30104] (K. pneumoniae DSM-30104; DSM-30104): 16 mg/L (≈ 15.1 µM); MIC P. aeruginosa [PA01] (P. aeruginosa PA01 [1]): 2 mg/L (≈ 1.89 µM); MIC A. baumannii [DSM-30008] (A. baumannii DSM-30008; DSM-30008): 4 mg/L (≈ 3.77 µM) |
| C[C@@H](O)[C@@H]1NC(=O)[C@H]2NC(=O)[C@H](CCC(=O)O)NC(=O)[C@@H](N)Cc3c[nH]c4c(cccc34)O[C@@H]2c2c[nH]c3cc(ccc23)[C@H](CCCN)[C@@H](C(=O)N[C@@H](CCCNC(=N)N)C(=O)N[C@@H](Cc2c[nH]c3ccccc23)C(=O)O)NC1=O [D58] |  |  |  |  | IC50 HepG2 (HepG2; cytotoxicity, n = 2): > 37 mg/L; MIC E. coli [ATCC25922] (E. coli ATCC25922; pure compound, n = 2, Table 2): 8 mg/L (≈ 7.25 µM); MIC K. pneumoniae [DSM-30104] (K. pneumoniae DSM-30104; pure compound, n = 2, Table 2): 16 mg/L (≈ 14.5 µM); MIC P. aeruginosa [PA01] (P. aeruginosa PA01 [1]; pure compound, n = 2, Table 2): 8 mg/L (≈ 7.25 µM); Kd [2]: 5.1 ± 3.7 µM; MIC A. baumannii [DSM-30008] (A. baumannii DSM-30008; pure compound, n = 2, Table 2): 2 mg/L (≈ 1.81 µM) |
| C[C@@H](O)[C@@H]1NC(=O)[C@H]2NC(=O)[C@H](CC(=O)O)NC(=O)[C@@H](N)Cc3c[nH]c4c(cccc34)O[C@@H]2c2c[nH]c3cc(ccc23)[C@H](CCCN)[C@@H](C(=O)N[C@@H](CCCNC(=N)N)C(=O)N[C@@H](Cc2c[nH]c3ccccc23)C(=O)O)NC1=O [D60] |  |  |  |  | IC50 HepG2 (HepG2): > 37 mg/L; MIC E. coli [ATCC25922] (E. coli ATCC25922; ATCC25922): 16 mg/L (≈ 14.7 µM); MIC K. pneumoniae [DSM-30104] (K. pneumoniae DSM-30104; DSM-30104): 16 mg/L (≈ 14.7 µM); MIC P. aeruginosa [PA01] (P. aeruginosa PA01 [1]): 4 mg/L (≈ 3.67 µM); MIC A. baumannii [DSM-30008] (A. baumannii DSM-30008; DSM-30008): 2 mg/L (≈ 1.84 µM) |
| D62: novel darobactin derivative, core peptide WRWTKRW (not fully specified (bridges); also: darobactin bicyclic crosslinks) | B | A |  |  |  |
| D72: novel darobactin derivative, core peptide WKWSKRW (also: darobactin bicyclic crosslinks) | B | C | C | B |  |
| C[C@@H](O)[C@@H]1NC(=O)[C@H]2NC(=O)[C@H](CCC(N)=O)NC(=O)[C@@H](N)Cc3c[nH]c4c(cccc34)O[C@@H]2c2c[nH]c3cc(ccc23)[C@H](CCCN)[C@@H](C(=O)N[C@@H](CCCNC(=N)N)C(=O)N[C@@H](Cc2c[nH]c3ccccc23)C(=O)O)NC1=O [D61] |  |  |  |  | IC50 HepG2 (HepG2; cytotoxicity, n = 2): > 37 mg/L; MIC E. coli [ATCC25922] (E. coli ATCC25922; pure compound, n = 2, Table 2): 2 mg/L (≈ 1.81 µM); MIC K. pneumoniae [DSM-30104] (K. pneumoniae DSM-30104; pure compound, n = 2, Table 2): 8 mg/L (≈ 7.26 µM); MIC P. aeruginosa [PA01] (P. aeruginosa PA01 [1]; pure compound, n = 2, Table 2): 4 mg/L (≈ 3.63 µM); Kd [2]: 3.6 ± 0.6 µM; MIC A. baumannii [DSM-30008] (A. baumannii DSM-30008; pure compound, n = 2, Table 2): 0.5 mg/L (≈ 0.454 µM) |
| D66: novel darobactin derivative, core peptide WNWTKCW (not fully specified (bridges); also: darobactin bicyclic crosslinks) | A | C | A | B |  |
| D70: novel darobactin derivative, core peptide WSWSKRW (also: darobactin bicyclic crosslinks) | C | E | C | D |  |
| D59: novel darobactin derivative, core peptide WKWTKRW (not fully specified (bridges); also: darobactin bicyclic crosslinks) | A | A | A | A |  |
| D71: novel darobactin derivative, core peptide WEWSKRW (also: darobactin bicyclic crosslinks) | C | E | C | B-C |  |
| D63: novel darobactin derivative, core peptide WVWTKRW (not fully specified (bridges); also: darobactin bicyclic crosslinks) | B | C |  | A |  |
| D68: novel darobactin derivative, core peptide WLWTKRW (not fully specified (bridges); also: darobactin bicyclic crosslinks) | B | D | B | B |  |
| D73: novel darobactin derivative, core peptide WDWSKRW (also: darobactin bicyclic crosslinks) | A | C | A | B |  |
| D65: novel darobactin derivative, core peptide WSWTKKW (not fully specified (bridges); also: darobactin bicyclic crosslinks) | A | D | A | B |  |
| D67: novel darobactin derivative, core peptide WYWTKRW (not fully specified (bridges); also: darobactin bicyclic crosslinks) | C | E | C | D |  |
